Data: article PMC11110727, “Exploiting thiol-functionalized benzosiloxaboroles for achieving diverse substitution patterns – synthesis, characterization and biological evaluation of promising antibacterial agents” (RSC Medicinal Chemistry, 2024)
Values after ≈ are worked out from the molar mass of the structure shown. Where two headings read alike, the source gives them in different places.

What was measured:
[1] = tested on: S. aureus ATCC 6538P; experiment: Antibacterial activity: MIC/MBC determination and disc-diffusion; type: cell-based, Staphylococcus aureus; settings: S. aureus ATCC 6538P; for diameter of inhibition zone: disc-diffusion, — = zone not observed; for MBC / MIC: Staphylococcus aureus, ATCC6538P; for MIC: read-out: MIC
Procedure: (§1) Direct antimicrobial activity was determined against the following standard strains: (1) Gram-positive cocci: methicillin-sensitive Staphylococcus aureus ATCC 6538P (MSSA), methicillin-resistant S. aureus subsp. aureus ATCC 43300 (MRSA), S. epidermidis ATCC 12228, Enterococcus faecium ATCC 6057, E. faecalis ATCC 29212, Bacillus subtilis ATCC 6633; (2) Gram-negative bacteria from Enterobacteriales order: Klebsiella pneumoniae ATCC 13883, Escherichia coli ATCC 25922, Enterobacter cloacae DSM 6234, Proteus mirabilis ATCC 12453, Serratia marcescens ATCC 13880; (3) Gram-negative non-fermentative rods: Acinetobacter baumannii ATCC 19606, Pseudomonas aeruginosa ATCC 27853, Stenotrophomonas maltophilia ATCC 12714, S. maltophilia ATCC 13637, Burkholderia cepacia ATCC 25416, Bordetella bronchiseptica ATCC 4617; (4) yeasts: Candida albicans ATCC 90028, C. krusei ATCC 6258, C. parapsilosis ATCC 22019, C. tropicalis (Castellani) Berkhout ATCC 750, C. tropicalis IBA 171, C. guilliermondii IBA 155, and Saccharomyces cerevisiae ATCC 9763. Moreover, 5 clinical strains of methicillin-resistant S. aureus were also included: NMI 664 K, NMI 1576 K, NMI 1712 K, NMI 1991 K, and NMI 2541 K. All strains were stored at −80 °C. Prior to testing, each bacterial strain was subcultured twice on tryptic soy agar TSA (bioMerieux) medium and yeast strains on Sabouraud dextrose agar (bioMerieux) for 24–48 h at 30 °C to ensure viability. The antimicrobial activity was evaluated as previously described[26] by the disc-diffusion method and the MIC determination assays according to the EUCAST (ref. [71] and [72]) and CLSI (ref. [53] and [73]) recommendations. Assessment of bactericidal (MBC) and fungicidal (MFC) activities was performed according to the CLSI recommendations.[54,74] The following reference agents were used: fluconazole (in the case of fungi), linezolid (for Gram-positive bacteria), and nitrofurantoin (for Gram-negative rods). The new benzosiloxaboroles were dissolved in DMSO (Sigma).

[2] = tested on: S. maltophilia ATCC 13637; experiment: Antibacterial activity: MIC/MBC, MIC with PAβN, disc-diffusion; type: cell-based, Stenotrophomonas maltophilia; settings: S. maltophilia ATCC 13637; for MIC: read-out: MIC
Procedure: as §1, with “The following reference agents were used: fluconazole (in the case of fungi), linezolid (for Gram-positive bacteria), and nitrofurantoin (for Gram-negative rods).” left out
(§2) Considering that the MDR efflux pumps often contribute to Gram-negative rod resistance, the MIC values of studied agents, with or without the pump inhibitor, PAβN (20 μg mL^−1) (Sigma), were determined.[75] The MIC was determined using Mueller–Hinton II broth medium (MHB) (Becton Dickinson) by the broth microdilution method, according to the CLSI guideliness.[53] To minimize the influence of PAβN on the destabilization of bacterial cell covers, the tests were conducted in the presence of 1 mM MgSO4 (Sigma).[76] At least a 4-fold reduction in the MIC value after the addition of PAβN was considered significant.[56,77]

[3] = tested on: S. maltophilia ATCC 12714; experiment: as above; type: cell-based, Stenotrophomonas maltophilia; settings: S. maltophilia ATCC 12714; for MIC: read-out: MIC
Procedure: as §1, with “The following reference agents were used: fluconazole (in the case of fungi), linezolid (for Gram-positive bacteria), and nitrofurantoin (for Gram-negative rods).” left out
as §2

[4] = tested on: S. aureus ATCC 43300 MRSA; experiment: Antibacterial activity: MIC/MBC determination and disc-diffusion; type: cell-based; settings: Staphylococcus aureus, S. aureus ATCC 43300 MRSA; for MIC: read-out: MIC; for MBC: read-out: MBC (first MBC where Eagle effect)
Procedure: as §1

[5] = tested on: B. bronchiseptica ATCC 4617; experiment: Antibacterial activity: MIC/MBC, disc-diffusion; type: cell-based, Bordetella bronchiseptica; settings: B. bronchiseptica ATCC 4617; for MIC: read-out: MIC
Procedure: as §1, with “The following reference agents were used: fluconazole (in the case of fungi), linezolid (for Gram-positive bacteria), and nitrofurantoin (for Gram-negative rods).” left out
as §2

[6] = tested on: S. cerevisiae ATCC 9763; experiment: Antifungal activity: MIC/MFC, disc-diffusion; type: cell-based, Saccharomyces cerevisiae; settings: for diameter of inhibition zone / MFC: S. cerevisiae ATCC 9763; for diameter of inhibition zone: (-) = zone not observed, paper discs 9 mm; for MFC / MIC: Saccharomyces cerevisiae, ATCC9763; for MIC: read-out: MIC
Procedure: as §1

[7] = tested on: C. albicans ATCC 90028; experiment: Antifungal activity: MIC/MFC, disc-diffusion; type: cell-based, Candida albicans; settings: for diameter of inhibition zone: C. albicans ATCC 90028, (-) = zone not observed, paper discs 9 mm; for MIC: Candida albicans, ATCC90028, read-out: MIC
Procedure: as §1

[8] = tested on: P. aeruginosa ATCC 27853; experiment: Antibacterial activity: MIC/MBC, MIC with PAβN, disc-diffusion; type: cell-based; settings: Pseudomonas aeruginosa, ATCC27853, P. aeruginosa ATCC 27853; for MIC: read-out: MIC
Procedure: as §1, with “The following reference agents were used: fluconazole (in the case of fungi), linezolid (for Gram-positive bacteria), and nitrofurantoin (for Gram-negative rods).” left out
as §2

[9] = tested on: A. baumannii ATCC 19606; experiment: as above; type: cell-based, Acinetobacter baumannii; settings: A. baumannii ATCC 19606; for MIC: read-out: MIC
Procedure: as §1, with “The following reference agents were used: fluconazole (in the case of fungi), linezolid (for Gram-positive bacteria), and nitrofurantoin (for Gram-negative rods).” left out
as §2

[10] = read-out: MBC (first MBC where Eagle effect)
[11] = PAβN 20 μg mL^−1, MHB + 1 mM MgSO4
[12] = Stenotrophomonas maltophilia, ATCC13637
[13] = Stenotrophomonas maltophilia, ATCC12714
[14] = Bordetella bronchiseptica, ATCC4617
[15] = Acinetobacter baumannii, ATCC19606
[16] = (-) = zone not observed, paper discs 9 mm

| SMILES | diameter of inhibition zone [1] [mm] | MBC [1, 10] [µg/mL] | MIC [1] [µg/mL] | MIC [2, 12] [µg/mL] | MIC [3, 13] [µg/mL] | MIC [4] [µg/mL] | MIC [5, 14] [µg/mL] | diameter of inhibition zone [6] [mm] | MFC [6] [µg/mL] | MIC [6] [µg/mL] | diameter of inhibition zone [7] [mm] | MIC [7] [µg/mL] | MIC [8] [µg/mL] | MIC [9, 15] [µg/mL] | MBC [4] [µg/mL] | further results |
| --- | --- | --- | --- | --- | --- | --- | --- | --- | --- | --- | --- | --- | --- | --- | --- | --- |
| COC(=O)CCSc1ccc2c(c1F)[Si](C)(C)OB2O [Compound 4, Methyl 3-((7-fluoro-3-hydroxy-1,1-dimethyl-1,3-dihydrobenzo[c][1,2,5]oxasilaborol-6-yl)thio)propanoate] | 27 | 25 (≈ 79.6 µM) | 12.5 (≈ 39.8 µM) | > 400 | > 400 | 12.5 (≈ 39.8 µM) | > 400 | 32 | 400 (≈ 1270 µM) | 12.5 (≈ 39.8 µM) | 12 | > 400 | > 400 | > 400 | – | MBC ([1]; value after the slash, read-out: second MBC (Eagle effect)): 400 µg/mL (≈ 1270 µM); -fold reduction of MIC in the presence of PAβN [2, 11]: 2 -fold; -fold reduction of MIC in the presence of PAβN [3, 11]: 2 -fold; -fold reduction of MIC in the presence of PAβN [9, 11]: 2 -fold |
| C[Si]1(C)OB(O)c2cc(F)c(S)c(F)c21 [Compound 1e, 5,7-Difluoro-6-mercapto-1,1-dimethylbenzo[c][1,2,5]oxasilaborol-3(1H)-ol] | 19 | 25 (≈ 102 µM) | 12.5 (≈ 50.8 µM) | > 400 | > 400 | 12.5 (≈ 50.8 µM) | > 400 | 17 | – | 200 (≈ 813 µM) | 15 | 100 (≈ 406 µM) | > 400 | > 400 | 25 (≈ 102 µM) | – |
| CC(=O)CSc1ccc2c(c1F)[Si](C)(C)OB2O [Compound 22, 1-((7-Fluoro-3-hydroxy-1,1-dimethyl-1,3-dihydrobenzo[c][1,2,5]oxasilaborol-6-yl)thio)propan-2-one] | 25 | 200 (≈ 704 µM) | 1.56 (≈ 5.49 µM) | > 400 | > 400 | 6.25 (≈ 22 µM) | > 400 | 17 | – | 400 (≈ 1410 µM) | – | > 400 | > 400 | > 400 | 200 (≈ 704 µM) | – |
| C[Si]1(C)OB(O)c2cc(F)c(SCCC(=O)N3CCOCC3)c(F)c21 [Compound 8, 3-((5,7-Difluoro-3-hydroxy-1,1-dimethyl-1,3-dihydrobenzo[c][1,2,5]oxasilaborol-6-yl)thio)-1-morpholinopropan-1-one] | 25 | – | 50 (≈ 129 µM) | > 400 | > 400 | 50 (≈ 129 µM) | > 400 | – | – | > 400 | – | > 400 | > 400 | > 400 | – | – |
| C[Si]1(C)OB(O)c2ccc(SC3CC(=O)NC3=O)c(F)c21 (centres unmarked) [Compound 13, 3-((7-Fluoro-3-hydroxy-1,1-dimethyl-1,3-dihydrobenzo[c][1,2,5]oxasilaborol-6-yl)thio)pyrrolidine-2,5-dione] | 20 | 200 (≈ 615 µM) | 25 (≈ 76.9 µM) | 25 (≈ 76.9 µM) | 50 (≈ 154 µM) | 25 (≈ 76.9 µM) | 12.5 (≈ 38.4 µM) | – | – | > 400 | – | > 400 | 200 (≈ 615 µM) | 50 (≈ 154 µM) | – | diameter of inhibition zone [2, 16]: 19 mm; MBC [2, 12]: 50 µg/mL (≈ 154 µM); diameter of inhibition zone [3, 16]: 17 mm; MBC [3, 13]: 200 µg/mL (≈ 615 µM); diameter of inhibition zone [5, 16]: 26 mm; MBC [5, 14]: 25 µg/mL (≈ 76.9 µM); MBC [8]: 400 µg/mL (≈ 1230 µM); diameter of inhibition zone [9, 16]: 20 mm; MBC [9, 15]: 100 µg/mL (≈ 308 µM) |
| C[Si]1(C)OB(O)c2ccc(SCCS(=O)(=O)c3ccccc3)c(F)c21 [Compound 21, 7-Fluoro-1,1-dimethyl-6-((2-(phenylsulfonyl)ethyl)thio)benzo[c][1,2,5]oxasilaborol-3(1H)-ol] | 26 | 200 (≈ 505 µM) | 12.5 (≈ 31.5 µM) | > 400 | > 400 | 12.5 (≈ 31.5 µM) | > 400 | 30 | 100 (≈ 252 µM) | 6.25 (≈ 15.8 µM) | – | 400 (≈ 1010 µM) | > 400 | > 400 | 400 (≈ 1010 µM) | – |
